Data as given in ChEMBL document CHEMBL3885861, “Open TG-GATES”.

Organism: Rattus norvegicus
Test: Open TG-GATES - Regimen: Daily Repeat
Assay type: toxicity, organism-based, Sprague-Dawley
Parameters: regimen Daily Repeat, gender Male, age 6 weeks
Conditions: in vivo, po, route gavage; for APTT / Bas / Eos / Fbg / Hb / Ht / Lym / MCH / MCHC / MCV / Mono / Neu / PT / Plat / RBC / Ret / WBC: tissue Blood; for KIDNEY_L / KIDNEY_R / KIDNEY_TOTAL: tissue Kidney; for LIVER: tissue Liver; for A/G / ALP / ALT / AST / BUN / CRE / Ca / Cl / DBIL / GLC / IP / K / LDH / Na / PL / RALB / TBIL / TC / TG / TP / gamma-GTP: tissue Plasma
[1] = 0 mg/kg, 72 h, dose level Control, time 3 day
[2] = 0 mg/kg, […], dose level Control, time 7 day
[3] = 0 mg/kg, […], dose level Control, time 14 day
[4] = 0 mg/kg, […], dose level Control, time 28 day
[5] = 100 mg/kg, 72 h, dose level Low, time 3 day
[6] = 100 mg/kg, […], dose level Low, time 7 day
[7] = 100 mg/kg, […], dose level Low, time 14 day
[8] = 100 mg/kg, […], dose level Low, time 28 day

## O=C(OC[C@H]1O[C@@H](OC(=O)c2cc(O)c(O)c(OC(=O)c3cc(O)c(O)c(O)c3)c2)[C@H](OC(=O)c2cc(O)c(O)c(OC(=O)c3cc(O)c(O)c(O)c3)c2)[C@@H](OC(=O)c2cc(O)c(O)c(OC(=O)c3cc(O)c(O)c(O)c3)c2)[C@@H]1OC(=O)c1cc(O)c(O)c(OC(=O)c2cc(O)c(O)c(O)c2)c1)c1cc(O)c(O)c(OC(=O)c2cc(O)c(O)c(O)c2)c1 [TANNIC ACID]
[1]
  TERMINAL_BW: 216 g
  APTT: 17.1 s
  Bas: 0%
  Eos: 1%
  Fbg: 245.4 mg/dL
  Hb: 13.2 g/dL
  Ht: 39.3%
  Lym: 77.6%
  MCH: 21.8 pg
  MCHC: 33.4%
  MCV: 65.2 fL
  Mono: 6.4%
  Neu: 15%
  PT: 11.7 s
  Plat: 118.4 x10_4/uL
  RBC: 603.8 x10_4/ul
  Ret: 8.3%
  WBC: 101.4 x10_2/uL
  KIDNEY_L: 0.9 g
  KIDNEY_R: 1 g
  KIDNEY_TOTAL: 1.9 g
  LIVER: 10.5 g
  A/G: 2.1
  ALP: 883.4 IU/L
  ALT: 36.2 IU/L
  AST: 62.2 IU/L
  BUN: 18 mg/dL
  CRE: 0.5 mg/dL
  Ca: 10.9 mg/dL
  Cl: 104.2 meq/L
  DBIL: 0 mg/dL
  GLC: 202 mg/dL
  IP: 8 mg/dL
  K: 4.8 meq/L
  LDH: 62.4 IU/L
  Na: 139.6 meq/L
  PL: 146.8 mg/dL
  RALB: 3.8 g/dL
  TBIL: 0.3 mg/dL
  TC: 75.2 mg/dL
  TG: 112.8 mg/dL
  TP: 5.7 g/dL
  gamma-GTP: 1 IU/L
[2]
  TERMINAL_BW: 253.1 g
  APTT: 16.7 s
  Bas: 0%
  Eos: 1%
  Fbg: 219.4 mg/dL
  Hb: 12.8 g/dL
  Ht: 38.2%
  Lym: 77.8%
  MCH: 21.4 pg
  MCHC: 33.5%
  MCV: 63.9 fL
  Mono: 6.8%
  Neu: 14.4%
  PT: 11.1 s
  Plat: 101 x10_4/uL
  RBC: 598 x10_4/ul
  Ret: 6.8%
  WBC: 131.8 x10_2/uL
  KIDNEY_L: 1.1 g
  KIDNEY_R: 1.1 g
  KIDNEY_TOTAL: 2.2 g
  LIVER: 12.3 g
  A/G: 1.7
  ALP: 813.4 IU/L
  ALT: 34.4 IU/L
  AST: 60.6 IU/L
  BUN: 19 mg/dL
  CRE: 0.4 mg/dL
  Ca: 10.8 mg/dL
  Cl: 103.2 meq/L
  DBIL: 0.006 mg/dL
  GLC: 205.2 mg/dL
  IP: 8.1 mg/dL
  K: 4.4 meq/L
  LDH: 57 IU/L
  Na: 137.8 meq/L
  PL: 160.2 mg/dL
  RALB: 3.6 g/dL
  TBIL: 0.4 mg/dL
  TC: 85.4 mg/dL
  TG: 119.6 mg/dL
  TP: 5.7 g/dL
  gamma-GTP: 1 IU/L
[3]
  TERMINAL_BW: 306.2 g
  APTT: 16 s
  Bas: 0%
  Eos: 1.2%
  Fbg: 251.8 mg/dL
  Hb: 13.9 g/dL
  Ht: 41.6%
  Lym: 78%
  MCH: 20.7 pg
  MCHC: 33.4%
  MCV: 62.1 fL
  Mono: 7%
  Neu: 14%
  PT: 11.5 s
  Plat: 125.4 x10_4/uL
  RBC: 669.8 x10_4/ul
  Ret: 5.3%
  WBC: 128.6 x10_2/uL
  KIDNEY_L: 1.2 g
  KIDNEY_R: 1.2 g
  KIDNEY_TOTAL: 2.4 g
  LIVER: 14.2 g
  A/G: 1.8
  ALP: 806.2 IU/L
  ALT: 31.2 IU/L
  AST: 58.8 IU/L
  BUN: 18.4 mg/dL
  CRE: 0.6 mg/dL
  Ca: 10.7 mg/dL
  Cl: 103.8 meq/L
  DBIL: 0.018 mg/dL
  GLC: 198 mg/dL
  IP: 7.8 mg/dL
  K: 4.6 meq/L
  LDH: 81 IU/L
  Na: 139.6 meq/L
  PL: 140.2 mg/dL
  RALB: 3.8 g/dL
  TBIL: 0.3 mg/dL
  TC: 70.2 mg/dL
  TG: 115.2 mg/dL
  TP: 5.9 g/dL
  gamma-GTP: 1 IU/L
[4]
  TERMINAL_BW: 398.3 g
  APTT: 17.3 s
  Bas: 0%
  Eos: 1%
  Fbg: 229 mg/dL
  Hb: 14.7 g/dL
  Ht: 43.6%
  Lym: 84%
  MCH: 19.9 pg
  MCHC: 33.7%
  MCV: 59.2 fL
  Mono: 5.2%
  Neu: 9.8%
  PT: 11.8 s
  Plat: 112.4 x10_4/uL
  RBC: 738.4 x10_4/ul
  Ret: 2.8%
  WBC: 144.2 x10_2/uL
  KIDNEY_L: 1.4 g
  KIDNEY_R: 1.4 g
  KIDNEY_TOTAL: 2.7 g
  LIVER: 17.9 g
  A/G: 1.8
  ALP: 563.4 IU/L
  ALT: 29.4 IU/L
  AST: 56.8 IU/L
  BUN: 20.4 mg/dL
  CRE: 0.6 mg/dL
  Ca: 11 mg/dL
  Cl: 105.4 meq/L
  DBIL: 0.006 mg/dL
  GLC: 221.4 mg/dL
  IP: 7.1 mg/dL
  K: 4.4 meq/L
  LDH: 63.6 IU/L
  Na: 139.6 meq/L
  PL: 152.6 mg/dL
  RALB: 3.9 g/dL
  TBIL: 0.2 mg/dL
  TC: 73.6 mg/dL
  TG: 141.4 mg/dL
  TP: 6.2 g/dL
  gamma-GTP: 0.6 IU/L
[5]
  TERMINAL_BW: 221.9 g
  APTT: 16.9 s
  Bas: 0%
  Eos: 1%
  Fbg: 234.4 mg/dL
  Hb: 13.2 g/dL
  Ht: 39.2%
  Lym: 72.6%
  MCH: 22.3 pg
  MCHC: 33.6%
  MCV: 66.4 fL
  Mono: 12.2%
  Neu: 14.4%
  PT: 11.5 s
  Plat: 111.4 x10_4/uL
  RBC: 590.2 x10_4/ul
  Ret: 8.8%
  WBC: 90.6 x10_2/uL
  KIDNEY_L: 1 g
  KIDNEY_R: 1 g
  KIDNEY_TOTAL: 2 g
  LIVER: 11.1 g
  A/G: 2.3
  ALP: 864 IU/L
  ALT: 33.4 IU/L
  AST: 61.4 IU/L
  BUN: 18.8 mg/dL
  CRE: 0.5 mg/dL
  Ca: 11 mg/dL
  Cl: 104.2 meq/L
  DBIL: 0 mg/dL
  GLC: 204.8 mg/dL
  IP: 8.6 mg/dL
  K: 4.8 meq/L
  LDH: 68.4 IU/L
  Na: 139.8 meq/L
  PL: 154.6 mg/dL
  RALB: 4 g/dL
  TBIL: 0.3 mg/dL
  TC: 84.6 mg/dL
  TG: 100.8 mg/dL
  TP: 5.7 g/dL
  gamma-GTP: 1.2 IU/L
[6]
  TERMINAL_BW: 249.2 g
  APTT: 16.3 s
  Bas: 0%
  Eos: 1%
  Fbg: 221.6 mg/dL
  Hb: 13.4 g/dL
  Ht: 40.3%
  Lym: 74.8%
  MCH: 21 pg
  MCHC: 33.3%
  MCV: 63.3 fL
  Mono: 7.4%
  Neu: 16.8%
  PT: 11 s
  Plat: 122.5 x10_4/uL
  RBC: 638.6 x10_4/ul
  Ret: 6.5%
  WBC: 119 x10_2/uL
  KIDNEY_L: 1 g
  KIDNEY_R: 1 g
  KIDNEY_TOTAL: 2.1 g
  LIVER: 12.2 g
  A/G: 1.5
  ALP: 796.4 IU/L
  ALT: 32.2 IU/L
  AST: 62.6 IU/L
  BUN: 18.4 mg/dL
  CRE: 0.5 mg/dL
  Ca: 11.1 mg/dL
  Cl: 103.2 meq/L
  DBIL: 0.004 mg/dL
  GLC: 207.4 mg/dL
  IP: 8.3 mg/dL
  K: 4.3 meq/L
  LDH: 87.6 IU/L
  Na: 138 meq/L
  PL: 160.8 mg/dL
  RALB: 3.6 g/dL
  TBIL: 0.4 mg/dL
  TC: 84.2 mg/dL
  TG: 116.2 mg/dL
  TP: 6 g/dL
  gamma-GTP: 1.6 IU/L
[7]
  TERMINAL_BW: 296.1 g
  APTT: 16.7 s
  Bas: 0%
  Eos: 1%
  Fbg: 261 mg/dL
  Hb: 14.3 g/dL
  Ht: 42.9%
  Lym: 74.5%
  MCH: 20.9 pg
  MCHC: 33.4%
  MCV: 62.6 fL
  Mono: 6.8%
  Neu: 18%
  PT: 11.5 s
  Plat: 129.4 x10_4/uL
  RBC: 685.8 x10_4/ul
  Ret: 4.6%
  WBC: 136 x10_2/uL
  KIDNEY_L: 1.1 g
  KIDNEY_R: 1.2 g
  KIDNEY_TOTAL: 2.3 g
  LIVER: 13.7 g
  A/G: 1.8
  ALP: 726.5 IU/L
  ALT: 32 IU/L
  AST: 58.2 IU/L
  BUN: 18.5 mg/dL
  CRE: 0.6 mg/dL
  Ca: 10.9 mg/dL
  Cl: 102.8 meq/L
  DBIL: 0.01 mg/dL
  GLC: 207.5 mg/dL
  IP: 8.3 mg/dL
  K: 4.2 meq/L
  LDH: 77 IU/L
  Na: 140 meq/L
  PL: 140.2 mg/dL
  RALB: 3.9 g/dL
  TBIL: 0.3 mg/dL
  TC: 69.5 mg/dL
  TG: 100.2 mg/dL
  TP: 6.1 g/dL
  gamma-GTP: 1.8 IU/L
[8]
  TERMINAL_BW: 380.6 g
  APTT: 15.9 s
  Bas: 0%
  Eos: 1.2%
  Fbg: 230 mg/dL
  Hb: 15.1 g/dL
  Ht: 45%
  Lym: 80.4%
  MCH: 19.9 pg
  MCHC: 33.5%
  MCV: 59.5 fL
  Mono: 5.8%
  Neu: 12.4%
  PT: 12 s
  Plat: 116.4 x10_4/uL
  RBC: 757.4 x10_4/ul
  Ret: 2.8%
  WBC: 142.1 x10_2/uL
  KIDNEY_L: 1.4 g
  KIDNEY_R: 1.5 g
  KIDNEY_TOTAL: 2.9 g
  LIVER: 15.5 g
  A/G: 1.6
  ALP: 659.6 IU/L
  ALT: 34 IU/L
  AST: 64.6 IU/L
  BUN: 20.2 mg/dL
  CRE: 0.6 mg/dL
  Ca: 10.8 mg/dL
  Cl: 106.4 meq/L
  DBIL: 0.006 mg/dL
  GLC: 196.8 mg/dL
  IP: 7.4 mg/dL
  K: 4.3 meq/L
  LDH: 78.2 IU/L
  Na: 139.4 meq/L
  PL: 145.8 mg/dL
  RALB: 3.8 g/dL
  TBIL: 0.3 mg/dL
  TC: 70.6 mg/dL
  TG: 108 mg/dL
  TP: 6.2 g/dL
  gamma-GTP: 2 IU/L
